# Where two headings read alike, the source gives them in different places.
# What was measured:
# α2B receptor = target: T1, α2B receptor (Homo sapiens, UniProt P18089); test: Competition binding, [3H]rauwolscine, human α2B receptor; details: for Ki: [3H]rauwolscine, human α2B receptor, LM(tk-) cells
# T1 construct: host or cells: LM(tk-) cells, line L-NGC-α2B
# T1 sequence (P18089 1-450): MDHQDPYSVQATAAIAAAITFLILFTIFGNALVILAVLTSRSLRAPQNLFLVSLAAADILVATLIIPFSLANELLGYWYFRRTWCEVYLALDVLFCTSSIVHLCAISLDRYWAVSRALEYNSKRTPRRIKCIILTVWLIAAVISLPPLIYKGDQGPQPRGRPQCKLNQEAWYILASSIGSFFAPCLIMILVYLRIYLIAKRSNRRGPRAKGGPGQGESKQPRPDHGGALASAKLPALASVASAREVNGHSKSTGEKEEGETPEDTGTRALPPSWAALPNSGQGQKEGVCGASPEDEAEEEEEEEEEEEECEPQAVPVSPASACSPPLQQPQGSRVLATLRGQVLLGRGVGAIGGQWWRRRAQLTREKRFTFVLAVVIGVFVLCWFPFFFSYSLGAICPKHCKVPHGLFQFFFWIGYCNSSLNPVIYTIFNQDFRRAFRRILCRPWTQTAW
# Procedure, shortened: (§1)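 Lysates of LM(tk−) cells stably expressing each α2 subtype were suspended in 25 mM glycylglycine buffer (pH 7.6 at room temperature). Equilibrium competition binding used 0.5 nM [3H]rauwolscine, with nonspecific binding defined by 10 μM phentolamine; bound radioligand was separated by GF/B filtration.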
# α2C receptor = target: T2, α2C receptor (Homo sapiens, UniProt P18825); test: Competition binding, [3H]rauwolscine, human α2C receptor; details: for Ki: [3H]rauwolscine, human α2C receptor, LM(tk-) cells, read-out: PKi alpha-2 2c (converted)
# T2 construct: host or cells: LM(tk-) cells, line L-α2C
# T2 sequence (P18825 1-462): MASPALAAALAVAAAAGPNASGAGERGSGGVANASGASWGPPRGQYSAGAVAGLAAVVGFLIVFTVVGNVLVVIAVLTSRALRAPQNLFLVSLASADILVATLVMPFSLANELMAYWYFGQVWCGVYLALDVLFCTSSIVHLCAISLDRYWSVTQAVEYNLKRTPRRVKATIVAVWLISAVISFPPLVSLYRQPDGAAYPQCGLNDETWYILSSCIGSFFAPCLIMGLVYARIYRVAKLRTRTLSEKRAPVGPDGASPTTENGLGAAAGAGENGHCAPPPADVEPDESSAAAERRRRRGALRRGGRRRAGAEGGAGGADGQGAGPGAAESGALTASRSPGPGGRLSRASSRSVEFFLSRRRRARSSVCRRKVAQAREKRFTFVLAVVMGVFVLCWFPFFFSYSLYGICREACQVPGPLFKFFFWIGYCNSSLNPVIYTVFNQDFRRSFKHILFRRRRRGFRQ
# Procedure, shortened: as §1
# [1] = target: T3, α1B Human Adrenergic Receptor (Homo sapiens, UniProt P35368); test: Radioligand binding, [3H]prazosin, cloned human α1B adrenergic receptor; details: cloned human α1B receptor, LM(tk-) cell membranes
# T3 construct: The entire coding region of α1B (1563 bp); expressed in transfected cells
# T3 sequence (P35368 1-520): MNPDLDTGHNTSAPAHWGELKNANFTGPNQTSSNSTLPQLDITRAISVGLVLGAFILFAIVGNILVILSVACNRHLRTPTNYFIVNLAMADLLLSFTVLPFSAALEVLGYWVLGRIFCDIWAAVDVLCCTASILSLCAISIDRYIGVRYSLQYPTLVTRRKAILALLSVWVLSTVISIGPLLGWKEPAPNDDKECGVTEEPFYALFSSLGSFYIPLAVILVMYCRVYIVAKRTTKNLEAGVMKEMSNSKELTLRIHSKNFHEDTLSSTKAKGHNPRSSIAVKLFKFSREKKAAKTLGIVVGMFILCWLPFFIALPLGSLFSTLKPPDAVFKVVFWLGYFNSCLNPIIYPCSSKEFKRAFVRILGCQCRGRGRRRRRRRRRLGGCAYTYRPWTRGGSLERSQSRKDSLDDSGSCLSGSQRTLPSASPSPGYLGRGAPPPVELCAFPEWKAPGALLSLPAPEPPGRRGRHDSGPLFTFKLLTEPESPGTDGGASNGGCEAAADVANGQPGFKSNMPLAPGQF
# Procedure, shortened: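 Membranes from stably transfected LM(tk−) cells, resuspended in 50 mM Tris-HCl, 1 mM MgCl2, 0.1% ascorbic acid, pH 7.5, were incubated with 0.5 nM [3H]prazosin for 20 min at 37° C. Nonspecific binding defined with 10 μM phentolamine; bound ligand separated by GF/B filtration.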
# α2A receptor = target: T4, α2A receptor (Homo sapiens, UniProt P08913); test: Competition binding, [3H]rauwolscine, human α2A receptor; details: for Ki: [3H]rauwolscine, human α2A receptor, LM(tk-) cells, read-out: PKi alpha-2 2a (converted)
# T4 construct: host or cells: LM(tk-) cells, line L-α2A
# T4 sequence (P08913 1-465): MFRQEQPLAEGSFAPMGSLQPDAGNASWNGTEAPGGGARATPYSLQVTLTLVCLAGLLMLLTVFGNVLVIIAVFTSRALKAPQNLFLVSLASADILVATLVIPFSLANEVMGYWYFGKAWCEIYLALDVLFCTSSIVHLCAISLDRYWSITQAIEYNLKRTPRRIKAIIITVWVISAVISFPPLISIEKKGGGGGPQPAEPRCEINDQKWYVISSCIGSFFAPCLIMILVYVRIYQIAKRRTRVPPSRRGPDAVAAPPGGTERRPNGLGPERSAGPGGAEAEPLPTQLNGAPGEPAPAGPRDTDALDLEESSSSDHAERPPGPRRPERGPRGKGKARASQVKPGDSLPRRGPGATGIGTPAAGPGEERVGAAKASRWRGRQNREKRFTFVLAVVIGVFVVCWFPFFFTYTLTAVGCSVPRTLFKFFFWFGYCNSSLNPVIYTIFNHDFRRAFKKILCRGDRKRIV
# Procedure, shortened: as §1
# [2] = read-out: PKi alpha-2 2b (converted)
# [3] = read-out: PKi alpha-1 1b (converted)
Structure (SMILES),Ki (α2B receptor; [2]) [nM],Ki (α2C receptor) [nM],"Ki [1, 3] [nM]",Ki (α2A receptor) [nM],Ki (α2B receptor; PKi alpha-2 2b) [nM],Ki ([1]; PKi alpha-1 1b) [nM],PKi alpha-2 2b (α2B receptor),PKi alpha-2 2c (α2C receptor),PKi alpha-1 1b [1],PKi alpha-2 2a (α2A receptor)
"CCOC(=O)C1(c2ccccc2)CCN(CCCNC(=O)C2=C(COCCN)NC(C)=C(C(C)=O)C2c2ccc3c(c2)OCO3)CC1 (stereo not shown) [Example 244, 5-Acetyl-2-((2-aminoethyl)oxy)methyl-3-(N-(3-(4-ethoxycarbonyl-4-phenylpiperidin-1-yl)propyl)) carboxamido-1,4-dihydro-6-methyl-4-(3,4-methylenedioxy) phenylpyridine]",2140,97.7,513,1020,,,,,,
"COC(=O)C1(c2ccccc2)CCN(CCCNC(=O)C2=C(COCCN)NC(C)=C(C(C)=O)C2c2ccc(F)cc2)CC1 (stereo not shown) [Example 245, 5-Acetyl-2-((2-aminoethyl)oxy)methyl-4-(4-fluoro)phenyl-1,4-dihydro-3-(N-3-(4-methoxycarbonyl-4-phenylpiperidin-1-yl)propyl)carboxamido-6-methylpyridine]",2750,316,355,1050,,,,,,
CCC1=C(C(=O)OCCO)C(c2ccc([N+](=O)[O-])cc2)C(C(=O)NCCCN2CCC(c3ccccc3)(c3ccccc3)CC2)=C(COC)N1 (stereo not shown) [Example 246],,2400,,676,309,174,,,,
"CCC1=C(C(=O)NCCOC)C(c2ccc([N+](=O)[O-])cc2)C(C(=O)NCCCN2CCC(c3ccccc3)(c3ccccc3)CC2)=C(COC)N1 (stereo not shown) [Example 247, 6-Ethyl-1,4-dihydro-5-N-((2-methoxy)ethyl)carboxamido-2-(methyloxy)methyl-4-(4-nitro)phenyl-3-(N-(3-(4,4-diphenylpiperidin-1-yl)propyl)) carboxamidopyridine]",,302,,589,479,912,,,,
"CCC1=C(C(=O)NN2CCOCC2)C(c2ccc([N+](=O)[O-])cc2)C(C(=O)NCCCN2CCC(c3ccccc3)(c3ccccc3)CC2)=C(COC)N1 (stereo not shown) [Example 248, 6-Ethyl-1,4-dihydro-2-((methyl)oxy)methyl-5-N-(morpholin-4yl)carboxamido-4-(4-nitro)phenyl-3-(N-(3-(4,4-diphenylpiperidin-1-yl)propyl))carboxamidopyridine]",1150,525,1510,1000,,,,,,
"COC(=O)C1=C(C)NC(C)=C(C(=O)NCCCN2CCC(c3ccccc3)(c3ccccc3)CC2)C1c1cccc([N+](=O)[O-])c1 (stereo not shown) [Example 249, 1,4-Dihydro-3-methoxycarbonyl-2,6-dimethyl-4-(3-nitrophenyl)-5-(N-(3-(4,4-diphenylpiperidin-1-yl)propyl)carboxamido)-pyridine]",,,,,,,5.91,6.25,6.63,5.81
COC(=O)C1=C(C)NC(C)=C(C(=O)NCCCN2CCC(c3ccccc3)CC2)C1c1ccc2c(c1)OCO2 (stereo not shown) [Example 250],39.8,36.3,69.2,123,,,,,,
